This is an account of results in patent US10112899B2 (ViiV HEALTHCARE UK LIMITED, priority 2014, dated 2018).

As usually defined, the IC50 is the concentration that gives 50% inhibition. Read a low IC50 as inhibition by little substance.

This assay has as its system HIV in the HTLV-1 transformed cell line MT-4. The assay can be described thus: organism not typed. Format: cell-based. The settings on record: MT4, 96 h, MT-4 cells; luciferase/cell titer glo readout after 96 hours; 10 point dose response.
Consider `Cc1ccc(-c2c(C)c3c(c(C)c2[C@H](OC(C)(C)C)C(=O)O)CN(C(=O)N2CCC(Cc4ccccc4)CC2)C3)cc1` [Example 95, (S)-2-(2-(4-benzylpiperidine-1-carbonyl)-4,7-dimethyl-6-(p-tolyl)isoindolin-5-yl)-2-(tert-butoxy)acetic acid], for which the IC50 came to 778 nM.
Under `Cc1ccc(-c2c(C)c3c(c(C)c2[C@H](OC(C)(C)C)C(=O)O)CN(C(=O)N2CC[C@@H](F)C2)C3)cc1` [Example 96, (S)-2-(tert-butoxy)-2-(2-((R)-3-fluoropyrrolidine-1-carbonyl)-4,7-dimethyl-6-(p-tolyl)isoindolin-5-yl)acetic acid] stands 14 nM; under `Cc1ccc(-c2c(C)c3c(c(C)c2[C@H](OC(C)(C)C)C(=O)O)CN(C(=O)NC(C)(C)c2ccccc2)C3)cc1` [Example 97, (S)-2-(tert-butoxy)-2-(4,7-dimethyl-2-((2-phenylpropan-2-yl)carbamoyl)-6-(p-tolyl)isoindolin-5-yl)acetic acid], 144 nM.
As for `Cc1ccc(-c2c(C)c3c(c(C)c2[C@H](OC(C)(C)C)C(=O)O)CN(C(=O)N2CCC(N4CCOCC4)CC2)C3)cc1` [Example 98, (S)-2-(tert-butoxy)-2-(4,7-dimethyl-2-(4-morpholinopiperidine-1-carbonyl)-6-(p-tolyl)isoindolin-5-yl)acetic acid], the figure is 2300 nM; as for `Cc1ccc(-c2c(C)c3c(c(C)c2[C@H](OC(C)(C)C)C(=O)O)CN(C(=O)N[C@@H](C)C2CCCCC2)C3)cc1` [Example 99, (S)-2-(tert-butoxy)-2-(2-(((S)-1-cyclohexylethyl)carbamoyl)-4,7-dimethyl-6-(p-tolyl)isoindolin-5-yl)acetic acid], 45 nM.
Under `Cc1ccc(-c2c(C)c3c(c(C)c2[C@H](OC(C)(C)C)C(=O)O)CN(C(=O)c2cccc4c2OCCO4)C3)cc1` [Example 105, (S)-2-(tert-butoxy)-2-(2-(2,3-dihydrobenzo[b][1,4]dioxine-5-carbonyl)-4,7-dimethyl-6-(p-tolyl)isoindolin-5-yl)acetic acid] stands 14 nM; under `Cc1ccc(-c2c(C)c3c(c(C)c2[C@H](OC(C)(C)C)C(=O)O)CN(C(=O)CN2CCCCC2)C3)cc1` [Example 106, (S)-2-(tert-butoxy)-2-(4,7-dimethyl-2-(2-(piperidin-1-yl)acetyl)-6-(p-tolyl)isoindolin-5-yl)acetic acid], 143 nM; under `Cc1ccc(-c2c(C)c3c(c(C)c2[C@H](OC(C)(C)C)C(=O)O)CN(C(=O)C2CCCCC2)C3)cc1` [Example 107, (S)-2-(tert-butoxy)-2-(2-(cyclohexanecarbonyl)-4,7-dimethyl-6-(p-tolyl)isoindolin-5-yl)acetic acid], 7 nM.
In turn, `Cc1ccc(-c2c(C)c3c(c(C)c2[C@H](OC(C)(C)C)C(=O)O)CN(C(=O)C(C)(C)C)C3)cc1` [Example 109, (S)-2-(tert-butoxy)-2-(4,7-dimethyl-2-pivaloyl-6-(p-tolyl)isoindolin-5-yl)acetic acid] had an IC50 of 36 nM.
In the case of `Cc1ccc(-c2c(C)c3c(c(C)c2[C@H](OC(C)(C)C)C(=O)O)CN(C(=O)CC(C)(C)C)C3)cc1` [Example 110, (S)-2-(tert-butoxy)-2-(2-(3,3-dimethylbutanoyl)-4,7-dimethyl-6-(p-tolyl)isoindolin-5-yl)acetic acid], half-maximal inhibition (IC50) was put at 6 nM.
As for `Cc1ccc(-c2c(C)c3c(c(C)c2[C@H](OC(C)(C)C)C(=O)O)CN(C(=O)C2CCC(F)(F)CC2)C3)cc1` [Example 111, (S)-2-(tert-butoxy)-2-(2-(4,4-difluorocyclohexanecarbonyl)-4,7-dimethyl-6-(p-tolyl)isoindolin-5-yl)acetic acid], the figure is 16 nM; as for `Cc1ccc(-c2c(C)c3c(c(C)c2[C@H](OC(C)(C)C)C(=O)O)CN(C(=O)C2CCCC2)C3)cc1` [Example 112, (S)-2-(tert-butoxy)-2-(2-(cyclopentanecarbonyl)-4,7-dimethyl-6-(p-tolyl)isoindolin-5-yl)acetic acid], 29 nM.
